Calls of active or inactive are those of the source. No cut-off for these calls is given here.
Tests used:
Adenosine receptor A1 = target: T1, Adenosine receptor A1 (Homo sapiens, UniProt P30542); assay: biochemical
T1 sequence (P30542 whole entry): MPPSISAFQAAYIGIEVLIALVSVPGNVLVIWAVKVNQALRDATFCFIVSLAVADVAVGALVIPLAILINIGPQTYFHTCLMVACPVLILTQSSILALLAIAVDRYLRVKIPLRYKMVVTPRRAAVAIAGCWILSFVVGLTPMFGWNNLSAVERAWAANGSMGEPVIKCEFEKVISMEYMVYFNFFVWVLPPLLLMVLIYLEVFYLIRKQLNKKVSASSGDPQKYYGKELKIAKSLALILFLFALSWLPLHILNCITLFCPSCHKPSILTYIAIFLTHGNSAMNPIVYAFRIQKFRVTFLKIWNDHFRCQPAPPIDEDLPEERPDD
Description: Displacement of [3H]DPCPX from human adenosine A1 receptor expressed in HEK293 cells after 60 mins by rapid filtration assay

Adenosine receptor A2a = Adenosine receptor A2a (Homo sapiens, UniProt P29274); assay: biochemical
Chain of Adenosine receptor A2a (P29274 whole entry): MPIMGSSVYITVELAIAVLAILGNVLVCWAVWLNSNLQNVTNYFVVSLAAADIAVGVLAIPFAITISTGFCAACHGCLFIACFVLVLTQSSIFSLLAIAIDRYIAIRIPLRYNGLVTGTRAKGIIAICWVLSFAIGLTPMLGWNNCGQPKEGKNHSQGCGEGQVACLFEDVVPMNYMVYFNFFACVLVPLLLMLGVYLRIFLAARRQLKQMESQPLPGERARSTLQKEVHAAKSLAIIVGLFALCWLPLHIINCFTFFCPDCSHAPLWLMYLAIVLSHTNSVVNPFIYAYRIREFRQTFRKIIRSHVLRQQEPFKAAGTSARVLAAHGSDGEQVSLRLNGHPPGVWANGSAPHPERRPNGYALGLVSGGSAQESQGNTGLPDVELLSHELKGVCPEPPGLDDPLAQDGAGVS
Description: Displacement of [3H]ZM241385 from human adenosine A2A receptor expressed in HEK293 cells after 60 mins by rapid filtration assay

Homo sapiens = species: Homo sapiens; assay: Selectivity ratio of Ki for human adenosine A1 receptor to Ki for human adenosine A2A receptor
Mus musculus [1] = assay: Inhibition of haloperidol-induced catalepsy in Swiss albino mouse at 20 mg/kg, ip administered 30 mins prior to haloperidol challenge measured after 15 to 120 mins; format: functional, organism-based; set-up: dose 20 mg/kg
Mus musculus [2] = assay: Inhibition of haloperidol-induced akinesia in Swiss albino mouse at 5 mg/kg, ip administered 30 mins prior to haloperidol challenge measured after 15 to 120 mins; format: functional, organism-based; set-up: dose 5 mg/kg
Mus musculus [3] = assay: Inhibition of haloperidol-induced catalepsy in Swiss albino mouse at 10 mg/kg, ip administered 30 mins prior to haloperidol challenge measured after 15 to 120 mins; format: functional, organism-based; set-up: dose 10 mg/kg
Mus musculus [4] = assay: Inhibition of haloperidol-induced akinesia in Swiss albino mouse at 20 mg/kg, ip administered 30 mins prior to haloperidol challenge measured after 15 to 120 mins; format: functional, organism-based; set-up: dose 20 mg/kg
Mus musculus [5] = assay: Inhibition of haloperidol-induced akinesia in Swiss albino mouse at 10 mg/kg, ip administered 30 mins prior to haloperidol challenge measured after 15 to 120 mins; format: functional, organism-based; set-up: dose 10 mg/kg
Mus musculus [6] = assay: Inhibition of haloperidol-induced catalepsy in Swiss albino mouse at 5 mg/kg, ip administered 30 mins prior to haloperidol challenge measured after 15 to 120 mins; format: functional, organism-based; set-up: dose 5 mg/kg

CCn1c(=S)sc2c1ncn1nc(-c3ccco3)nc21 was tested, and the Ki (Adenosine receptor A1) was 0.096 nM, the Ki (Adenosine receptor A2a) was 3.56 nM and the Ratio Ki (Homo sapiens) was 0.028.

Fc1ccc(-n2c(=S)sc3c2ncn2nc(-c4ccco4)nc32)cc1 was tested, and the Ki (Adenosine receptor A1) was 3.21 nM, the Ki (Adenosine receptor A2a) was 2.02 nM and the Ratio Ki (Homo sapiens) was 1.59.

C=CCn1c(=S)sc2c1ncn1nc(-c3ccco3)nc21 was tested, and the inhibition (Mus musculus [1]) was “Active”, the inhibition (Mus musculus [2]) was “Active” and the inhibition (Mus musculus [3]) was “Active”. The inhibition (Mus musculus [4]) was “Active”, the Ki (Adenosine receptor A1) was 19 nM and the inhibition (Mus musculus [5]) was “Active”. For the same compound, the Ki (Adenosine receptor A2a) was 0.016 nM, the Ratio Ki (Homo sapiens) was 1250 and the inhibition (Mus musculus [6]) was “Active”.

Work on S=c1sc2c(ncn3nc(-c4ccco4)nc23)n1-c1ccc(I)cc1 yielded a Ki (Adenosine receptor A1) of 6.13 nM, a Ki (Adenosine receptor A2a) of 0.57 nM and a Ratio Ki (Homo sapiens) of 10.8.

S=c1sc2c(ncn3nc(-c4ccco4)nc23)n1-c1ccc(Cl)cc1 gave a Ki (Adenosine receptor A1) of 0.03 nM, a Ki (Adenosine receptor A2a) of 0.152 nM and a Ratio Ki (Homo sapiens) of 0.197.

In the case of S=c1sc2c(ncn3nc(-c4ccco4)nc23)n1-c1ccccc1I, the Ki (Adenosine receptor A1) is reported as 0.4 nM, the Ki (Adenosine receptor A2a) is reported as 0.7 nM and the Ratio Ki (Homo sapiens) is reported as 0.571.

In the case of S=c1sc2c(ncn3nc(-c4ccco4)nc23)n1-c1cccc(I)c1, the Ki (Adenosine receptor A1) is reported as 2.62 nM, the Ki (Adenosine receptor A2a) is reported as 0.0082 nM and the Ratio Ki (Homo sapiens) is reported as 320.

In the case of CCCCn1c(=S)sc2c1ncn1nc(-c3ccco3)nc21, the inhibition (Mus musculus [1]) is reported as “Active”, the inhibition (Mus musculus [2]) is reported as “Active” and the inhibition (Mus musculus [3]) is reported as “Active”. For the same compound, the inhibition (Mus musculus [4]) was “Active”, the Ki (Adenosine receptor A1) was 148 nM and the inhibition (Mus musculus [5]) was “Active”. The Ki (Adenosine receptor A2a) was 0.12 nM, the Ratio Ki (Homo sapiens) was 1290 and the inhibition (Mus musculus [6]) was “Active”.

S=c1sc2c(ncn3nc(-c4ccco4)nc23)n1-c1ccccc1 showed a Ki (Adenosine receptor A1) of 48 nM, a Ki (Adenosine receptor A2a) of 1.1 nM and a Ratio Ki (Homo sapiens) of 46.6.

CCCn1c(=S)sc2c1ncn1nc(-c3ccco3)nc21 was tested, and the inhibition (Mus musculus [1]) was “Active”, the inhibition (Mus musculus [2]) was “Active” and the inhibition (Mus musculus [3]) was “Active”. The inhibition (Mus musculus [4]) was “Active”, the Ki (Adenosine receptor A1) was 228 nM and the inhibition (Mus musculus [5]) was “Active”. The Ki (Adenosine receptor A2a) was 0.38 nM, the Ratio Ki (Homo sapiens) was 636 and the inhibition (Mus musculus [6]) was “Active”.

For S=c1sc2c(ncn3nc(-c4ccco4)nc23)n1-c1cccc(Cl)c1, the Ki (Adenosine receptor A1) was 0.19 nM, the Ki (Adenosine receptor A2a) was 0.038 nM and the Ratio Ki (Homo sapiens) was 5.

— ChEMBL document CHEMBL1156165, “Novel 8-(furan-2-yl)-3-substituted thiazolo [5,4-e][1,2,4] triazolo[1,5-c] pyrimidine-2(3H)-thione derivatives as potential adenosine A(2A) receptor antagonists” (Bioorg Med Chem, 2010)
